Results taken from publication PMC2663715, “Snapshots of Catalysis in the E1 Subunit of the Pyruvate Dehydrogenase Multienzyme Complex” (Structure(London, England:1993), 2008).

Key:
[1] = target: T1, E1p/E2p-PSBD complex (pyruvate dehydrogenase E1 subunit with E2p peripheral subunit binding domain) (Geobacillus stearothermophilus, UniProt P21873+P21874); assay: X-ray crystal structure, […] A
T1 construct: gene pdhA; alpha2beta2 heterotetramer with one E2p PSBD; recombinant in E. coli TG1 recO (plasmids pKBstE1a, pKBstE1b); he-3-deazaThDP crystals grown with E2p di-domain (lipoyl domain-linker-PSBD); with Dihydrolipoyllysine-residue acetyltransferase component of pyruvate dehydrogenase complex

[2] = target: T2, E1p/E2p-PSBD complex (pyruvate dehydrogenase E1 subunit with E2p peripheral subunit binding domain) (Geobacillus stearothermophilus, UniProt P21873+P21874, P21873:I207A); assay: X-ray crystal structure, […] A; settings: 5 mM 3-deazaThDP; crystals at pH 5.0; ThDP site
T2 construct: gene pdhA; alpha2beta2 heterotetramer with one E2p PSBD; recombinant in E. coli TG1 recO (plasmids pKBstE1a, pKBstE1b); he-3-deazaThDP crystals grown with E2p di-domain (lipoyl domain-linker-PSBD); with Dihydrolipoyllysine-residue acetyltransferase component of pyruvate dehydrogenase complex

Row | Structure (SMILES) | X-ray crystal structure, 2.3 A ([1]; Mg2+, pyruvate soaked in, ThDP site) | X-ray crystal structure, 2.35 A [2] | X-ray crystal structure, 2.3 A ([1]; 10 mM pyruvate soak 1 week into 3-deazaThDP crystals, density in two of four sites, orientation not definitive)
1 | Cc1ncc(Cc2csc(CCOP(=O)(O)OP(=O)(O)O)c2C)c(N)n1 [3-deazaThDP] | we have solved the structure of the E1p/E2p-PSBD complex with bound 3-deazaThDP and pyruvate | crystal structure of the complex of 3-deazaThDP with the G. stearothermophilus E1p I206Aα mutant | 
2 | CC(=O)C(=O)O [pyruvate] |  |  | density in the active-site pocket that is likely to be due to pyruvate binding
